Entries after “also recorded” stand apart in the source; their conditions may differ. Where two headings read alike, the source gives them in different places.
What was measured:
[1] = Cytotoxicity against RAW 264.7 macrophages (MTT); format: cell-based, murine; details: mouse, RAW 264.7 macrophages, pH 7.2, RAW 264.7 cells
Description: (§1) Murine macrophage cell line RAW 264.7 was used in this study. The cells were cultured in 75 cm^2 cell culture flasks (Corning Glass Workers, New York, NY, USA) using DMEM medium with a pH of 7.2, supplemented with 10% FBS and 1% antibiotic solution (containing 100 U/mL penicillin and 100 μg/mL streptomycin). The cells were maintained in an incubator at a temperature of 37 °C with 5% CO2. The spikes were performed after the cells reached complete confluence, characterized by the formation of a monolayer of cells around 48 h to 72 h after packaging.
(§2) In this study, we utilized the RAW 264.7 macrophages line (obtained from ATCC: code TIB-71™),human embryonic kidney cell line HEK-293 (obtained from ATCC: code CRL-1573™)and two human cancer cell cultures: the colon carcinoma cell line CaCo-2 and the adenocarcinomic human alveolar basal epithelial cell A549 (also obtained from ATCC: codesHTB-37™ and CCL-185™).These cell lines were cultured in Dulbecco’s modified Eagle medium (DMEM) from Gibco by Life Technologies (LifeTech Austria, Vienna, Austria). The growth medium was supplemented with 5% fetal bovine serum (FBS) from Gibco by Life Technologies and 1% penicillin-streptomycin obtained from Sigma-Aldrich (Vienna, Austria). The cells were maintained at 37 °C with 5% CO2 in a humidified incubator, and regular checks for mycoplasma contamination were carried out.
(§3) For experimental purposes, the cells were seeded into 96-well plates at a density of 2 × 10^4 cells/mL, with each well containing 100 µL of the cell suspension. The cells were allowed to adhere for 24 h. Subsequently, they were exposed to 100 µL of the test compounds, which were diluted in DMEM, with concentrations ranging from 2 to 600 µmol/L. The stock solutions of these compounds were prepared in water with 10% (v/v) dimethyl sulfoxide (DMSO) and stored at 4 °C.
(§4) To assess cell viability after 72 h of exposure to the compounds, we employed a 3-(4,5-dimethylthiazol-2-yl)-2,5-diphenyltetrazolium bromide (MTT)-based vitality assay kit (EZ4U, Biomedica, Vienna, Austria). Briefly, we added 20 µL of the EZ4U assay solution to each well and incubated the plates in the dark for 2 h. Subsequently, we measured the absorbance using a microplate reader at 450 nm, with 620 nm as a reference to reduce unspecific background values. For reliability, all experiments were conducted three times with triplicate samples.
(§5) The different mean concentrations for promastigotes (IC50) and macrophages (CC50) were calculated using nonlinear regression. For comparisons between groups, ANOVA analysis of variance was performed followed by Tukey’s test in a statistical program, taking the p-value < 0.05 as the maximum level of statistical significance.

RAW 264.7 macrophages = test: Cytotoxicity against RAW 264.7 macrophages (MTT); format: cell-based, murine; details: RAW 264.7 cells, 72 h
Description: as §1, §2, §3, §4, §5

[2] = tested on: L. (V.) braziliensis promastigotes; test: Antileishmanial activity on promastigotes (MTT, 72 h); format: cell-based, Leishmania (Viannia) braziliensis
Description: Leishmania (Viannia) braziliensis (MHOM/BR/1975/M2903) was utilized in this study. The promastigote forms of these parasites were maintained in vitro in Schneider’s insect medium pH 7.2, supplemented with 20% fetal bovine serum (FBS) and 1% antibiotic solution (100 U/mL penicillin and 100 μg/mL streptomycin) at a temperature of 26 ± 1 °C in a Biochemical Oxygen Demand (BOD) incubator (Eletrolab EL202, São Paulo, Brazil), with regular aeration and weekly subculturing.
(§6) Assessment of antileishmanial activity against promastigote and amastigote axenic forms of parasites followed the method described by Rodrigues et al. and involved the following steps: L. (V.) braziliensis parasites were cultured in 96-well plates at a concentration of 1 × 10^6 parasites per well. Each well contained 100 μL of supplemented Schneider medium. Serial concentrations of the test substances, ranging from 50 to 1.56 μmol/L, were prepared. Reference drugs, meglumine antimoniate (20 to 40,000 μmol/L) and amphotericin B (0.031 to 2 μmol/L) were also prepared. These concentrations were used to assess the effects of the test substances in comparison to reference drugs. The plates were incubated in a BOD incubator at 26 °C for 72 h. After the 72 h incubation period, 10 μL of MTT (5 mg/mL) was added to each well. The plates were then incubated for an additional 4 h. At the end of the 4 h incubation, formazan crystals formed by the reduction of the MTT salt were solubilized by adding 50 μL of a 10% (w/v) sodium dodecyl sulfate (SDS) solution in distilled water. Absorbance was measured using a microplate reader at a wavelength of 540 nm (Biosystems ELx800 model, Curitiba, PR, Brazil). This measurement quantified the metabolic activity of the parasites, which is indicative of their viability and proliferation. Schneider medium containing 0.2% DMSO was used as a negative control in the tests.
as §5

[3] = tested on: L. (V.) braziliensis axenic amastigotes; test: Antileishmanial activity on axenic amastigotes (MTT, 72 h); format: cell-based, Leishmania (Viannia) braziliensis
Description: In vitro amastigogenesis was performed by transformation from promastigotes at the stationary phase of growth to obtention axenic amastigotes. This process involved altering the culture conditions to Schneider’s medium with a pH of 5.5, supplementing them with 5% FBS, and incubating them at a temperature of 32 °C [17].
as §6

[4] = tested on: L. (V.) braziliensis intramacrophage amastigotes; test: Treatment of RAW 264.7 macrophages infected with L. (V.) braziliensis (intramacrophage amastigotes); format: cell-based, Leishmania (Viannia) braziliensis; details: RAW 264.7 infected with L. (V.) braziliensis, 72 h of treatment
Description: RAW 264.7 macrophages (1 × 10^6 cells/mL) were seeded in 24-well plates containing sterile glass slides, and approximately 500 μL of supplemented DMEM medium was added. The plates were then incubated at 37 °C with 5% CO2 for 4 h to facilitate cell adhesion. Following the adhesion period, promastigotes (1 × 10^7) in the stationary growth phase were introduced into the wells for infection. The plates were then incubated for an additional 4 h to allow infection to take place. Afterward, the medium was carefully removed, and the wells were washed three times with PBS to eliminate any nonadherent cells. Fresh medium containing serial concentrations of the test substances, ranging from 0.78 to 25 μmol/L, was added to the wells. Additionally, a range of concentrations of glucantime (25 to 800 μmol/L) was included for comparison. The treatment was carried out for 72 h in an incubator at 37 °C with 5% CO2. At the end of the 72 h treatment period, the glass lamina was removed from each well and stained using rapid panoptic stain (Laborklin®, Curitiba, Paraná, Brazil). The stained samples were mounted on permanent slides using Entelan® (Sigma-Aldrich, St. Louis, MO, USA), and antileishmanial activity was assessed by measuring the infection rate and counting the number of amastigotes per macrophage. Quantification was performed using light microscopy at a magnification of 1000×, and a total of 300 macrophages per lamina were evaluated. As a negative control, half DMEM containing 0.2% DMSO was used.

right atrium = test: Chronotropic effect on isolated right atrium; design: species or system guinea pig; details: Cavia porcellus; isolated guinea pig right atrium, 3 to 100 µmol/L; read-out: EC50 reduction of heart rate activity
Description: (§7) Guinea pigs of either sex weighing between 250 or 380 g were utilized in this study. The animals were housed in a controlled environment in an air-conditioned room, maintaining a temperature of 22 to 24 °C and a relative humidity of 50% to 60%. A 12 h light–dark cycle was maintained.
(§8) On the day of the experiments, the animals were euthanized via cervical dislocation. The heart, aorta, pulmonary artery, and ileum were surgically removed and immersed in Krebs–Henseleit solution, with the following composition: NaCl 144.9 mM, KCl 4.73 mM, CaCl2 3.2 mM, MgSO4 1.18 mM, NaHCO3 24.9 mM, KH2PO4 1.18 mM, and glucose 10 mM, with the pH maintained at 7.2–7.4. This solution was continuously aerated with a mixture of 95% O2 and 5% CO2.
(§9) Papillary muscles were isolated from the right ventricle of the heart and meticulously cleared of Purkinje fibers to prevent spontaneous activity. To ensure adequate oxygen supply, only muscles with a diameter less than 0.87 mm were used. The right atrium was also dissected for assessment of chronotropic activity. Both the aorta and pulmonary artery were cleaned and cut into 5 mm rings, while the ileum was sectioned into pieces measuring 1 to 2 cm.
(§10) One end of the dissected tissues was securely tied with silver wire for attachment to a tissue holder, while the other end was connected to a force transducer (Transbridge™, 4-Channel Transducer Amplifier, World Precision Instruments, Sarasota, FL, USA). For contractile measurements, the terminal ileum was stimulated with 60 mM KCl, and the pulmonary artery and aorta rings were exposed to a 90 mM KCl solution. Papillary muscles were electrically stimulated using an Anapulse Stimulator Model 301-T and an Isolation Unit Model 305-1 (WPI, Hamden, CT, USA) with rectangular pulses of 3 ms duration at a frequency of 1 Hz. The amplitude of the stimulation pulse was maintained at 10% above the threshold level. To optimize contractility, a constant resting tension was applied throughout the experiment: 3.9 mN for papillary muscle, 4.9 mN for terminal ileum, 10.4 mN for the right atrium, and 19.6 mN for aorta and pulmonary artery rings.
(§11) Following a 30 min control period, different concentrations of test compounds were cumulatively added to the bath solution every 45 min until a stable effect was achieved. The responses were recorded using a chart recorder (BD 112 Dual Channel, Kipp &Zonen, PO Box 507, 2624 BC, Delft, Holland) for subsequent evaluation. Stock concentrations of the test compounds were prepared using DMSO. To account for any potential DMSO effect, control experiments were conducted with the solvent alone, and the observed effects were subtracted from the responses elicited by the test compounds.

aorta = test: Vasodilator effect on aortic rings (KCl contraction); details: Cavia porcellus; guinea pig aortic rings
Description: as §7, §8
as §9, with “Both the aorta and pulmonary artery were cleaned and cut into 5 mm rings, while the ileum was sectioned into pieces measuring 1 to 2 cm.” left out
(§12) Following a 30 min control period, different concentrations of test compounds were cumulatively added to the bath solution every 45 min until a stable effect was achieved. The responses were recorded using a chart recorder (BD 112 Dual Channel, Kipp &Zonen, PO Box 507, 2624 BC, Delft, Holland) for subsequent evaluation. […]

pulmonary artery = test: Vasodilator effect on pulmonary artery rings (KCl contraction); details: Cavia porcellus; guinea pig pulmonary artery rings
Description: as §7, §8, §9
One end of the dissected tissues was securely tied with silver wire for attachment to a tissue holder, while the other end was connected to a force transducer (Transbridge™, 4-Channel Transducer Amplifier, World Precision Instruments, Sarasota, FL, USA). For contractile measurements, the terminal ileum was stimulated with 60 mM KCl, and the pulmonary artery and aorta rings were exposed to a 90 mM KCl solution. […]
as §12

terminal ileum = test: Spasmolytic effect on terminal ileum (KCl contraction); details: guinea pig terminal ilea, KCl-induced contraction
Description: as §7, §8, §9, §10, §11

With `C[C@@H]1[C@H](O)[C@@H](C)/C=C/C=C/C=C/C=C/C=C/C=C/C=C/[C@H](O[C@@H]2O[C@H](C)[C@@H](O)[C@H](N)[C@@H]2O)C[C@@H]2O[C@](O)(C[C@@H](O)C[C@@H](O)[C@H](O)CC[C@@H](O)C[C@@H](O)CC(=O)O[C@H]1C)C[C@H](O)[C@H]2C(=O)O` [Amphotericin B, reference compound] the CC50 at 72 h [1] was 0.55 µM, the CC50 (RAW 264.7 macrophages) was 0.5 ± 0.1 µM and the IC50 ([2]; Leishmania braziliensis) was 0.3 ± 0.01 µM. It also gave an EC50 ([3]; Leishmania braziliensis) of 0.4 µM, an EC50 ([4]; Leishmania braziliensis, RAW264.7, 72 h) of 0.35 µM and an EC50 [4] of 0.3 ± 0.02 µM.

Molecule `O=C(/N=C(/NCc1ccccc1)Nc1ccccc1Br)c1ccccc1` [LQOF-G35] has a CC50 at 72 h [1] of 232 ± 3.5 µM and an IC50 ([2]; Leishmania braziliensis) of 25.9 ± 1.6 µM.

With `O=C(/N=C(/NCc1ccccc1)Nc1cccc(Br)c1)c1ccccc1` [LQOF-G36] the IC50 ([2]; Leishmania braziliensis) was greater than 50 µM, the EC50 (right atrium) was 38 µM and the EC50 (aorta) was 29 µM. The EC50 (pulmonary artery) was 23.5 µM and the “spasmolytic effect / contraction force in the terminal ileum” value (terminal ileum) was “decrease in contraction force; also recorded: spasmolytic effect”.

“Meglumine antimoniate [Meglumine At, reference compound]” showed a CC50 (RAW 264.7 macrophages) of 846 ± 13 µM, an IC50 [2] of 19300 µM and an EC50 [3] of 2170 µM. The EC50 [4] was 452 ± 14.3 µM and the EC50 ([4]; listed as Meglumine antimoniate) was 452 µM.

From paper PMC10813298, “Evidence of Guanidines Potential against Leishmania (Viannia) braziliensis: Exploring In Vitro Effectiveness, Toxicities and of Innate Immunity Response Effects” (Biomolecules, 2023)
